Results as given in patent US7563592B2, “Alizarin-based chromogenic substrates, their uses and composition containing same” (Biomerieux, S.A., priority 1999, dated 2009).

Key:
Citrobacter freundii = assay: β-galactosidase detection on semi-solid medium, clinical and environmental strains (Example 2); type: cell-based; settings: 50 mg/l + iron citrate 500 mg/l; 18 hours; 16 strains tested
Enterobacter cloacae = assay: as above; type: cell-based; settings: 50 mg/l + iron citrate 500 mg/l; 18 hours; 21 strains tested
Escherichia hermannii = assay: as above; type: cell-based; settings: 50 mg/l + iron citrate 500 mg/l; 18 hours; 1 strain tested
Klebsiella oxytoca = assay: as above; type: cell-based; settings: 50 mg/l + iron citrate 500 mg/l; 18 hours; 13 strains tested
Proteus mirabilis = assay: as above; type: cell-based; settings: 50 mg/l + iron citrate 500 mg/l; 18 hours; 16 strains tested
Providencia rettgeri = assay: as above; type: cell-based; settings: 50 mg/l + iron citrate 500 mg/l; 18 hours; 3 strains tested
Vibrio cholerae = type: cell-based; settings: 50 mg/l + iron citrate 500 mg/l; 18 hours; 1 strain tested
Listeria grayi 078 = assay: Effect of metal salts on the color of the marker part, substrate 50 mg/l in Columbia medium (Example 3); type: cell-based
Procedure: (§1) To the Columbia-base medium (46.37 g/l) supplemented with Alizarin-2-β-D-glucoside (50 mg/l), were added either Manganese chloride, Ammoniacal iron citrate, Tin chloride, or Aluminum sulfate, all at a concentration of 50 mg/l. A control medium with no metal salts was tested in parallel. After autoclaving, these various media were all used to prepare Petri dishes (20 ml per plate). […] It should be pointed out that intensity readings are in arbitrary units. The only purpose of giving these values is to make it possible to compare one strain with another in this respect. The same is true for the examples which follow. Similarly, the strains tested were taken from the Applicant's collection and the number given represents an internal reference specific to this collection. The same internal numbering system is also used in some of the examples given later on.

Listeria innocua 077 = assay: as above; type: cell-based
Procedure: as §1

Listeria ivanovii 018 = assay: as above; type: cell-based
Procedure: as §1

[1] = system: Listeria monocytogenes 081; assay: as above; type: cell-based
Procedure: as §1

[2] = system: Enterococcus faecalis 117; assay: Comparison of glucoside substrates in semi-solid Columbia medium (Example 7); type: cell-based; settings: 0.05 g/l + iron citrate 0.05 g/l
Listeria innocua 036 = assay: β-glucosidase detection in API strip wells (Example 6); settings: 0.12 g/l + iron citrate 0.05 g/l
[3] = system: Bacillus thuringiensis 072; assay: as above; settings: 0.12 g/l + iron citrate 0.05 g/l; 24 H
Enterococcus faecium 009 = assay: as above; settings: 0.12 g/l + iron citrate 0.05 g/l
[4] = Manganese chloride 50 mg/l, 24 H
[5] = Manganese chloride 50 mg/l, 48 H

**Q.** Which results are given for `O=C1c2ccccc2C(=O)c2c1ccc(O[C@@H]1O[C@H](CO)[C@H](O)[C@H](O)[C@H]1O)c2O` [Alizarin-2-β-D-galactoside]?
**A.** percentage of positive strains (Citrobacter freundii): 100%; percentage of positive strains (Enterobacter cloacae): 100%; percentage of positive strains (Escherichia hermannii): 100%; percentage of positive strains (Klebsiella oxytoca): 100%; percentage of positive strains (Proteus mirabilis): 0%; percentage of positive strains (Providencia rettgeri): 0%; percentage of positive strains (Vibrio cholerae): 100%

**Q.** Which results are given for `O=C1c2ccccc2C(=O)c2c1ccc(O[C@@H]1O[C@H](CO)[C@@H](O)[C@H](O)[C@H]1O)c2O` [Alizarin-2-β-D-glucoside]?
**A.** Color (Listeria grayi 078; Aluminum sulfate 50 mg/l, 24 H): red; Intensity (Listeria grayi 078; Aluminum sulfate 50 mg/l, 24 H): 4 arbitrary units; Color (Listeria grayi 078; Aluminum sulfate 50 mg/l, 48 H): red; Intensity (Listeria grayi 078; Aluminum sulfate 50 mg/l, 48 H): 4 arbitrary units; Color (Listeria grayi 078; Control, no metal salt, 24 H): purple; Intensity (Listeria grayi 078; Control, no metal salt, 24 H): 2 arbitrary units; Color (Listeria grayi 078; Control, no metal salt, 48 H): purple; Intensity (Listeria grayi 078; Control, no metal salt, 48 H): 2.3 arbitrary units; Color (Listeria grayi 078; Iron citrate 50 mg/l, 24 H): purple; Intensity (Listeria grayi 078; Iron citrate 50 mg/l, 24 H): 4 arbitrary units; Color (Listeria grayi 078; Iron citrate 50 mg/l, 48 H): purple; Intensity (Listeria grayi 078; Iron citrate 50 mg/l, 48 H): 4 arbitrary units; Color (Listeria grayi 078; [4]): purple; Intensity (Listeria grayi 078; [4]): 2 arbitrary units; Color (Listeria grayi 078; [5]): purple; Intensity (Listeria grayi 078; [5]): 2 arbitrary units; Color (Listeria grayi 078; Tin chloride 50 mg/l, 24 H): orange; Intensity (Listeria grayi 078; Tin chloride 50 mg/l, 24 H): 3 arbitrary units; Color (Listeria grayi 078; Tin chloride 50 mg/l, 48 H): orange; Intensity (Listeria grayi 078; Tin chloride 50 mg/l, 48 H): 4 arbitrary units; Color (Listeria innocua 077; Aluminum sulfate 50 mg/l, 24 H): red; Intensity (Listeria innocua 077; Aluminum sulfate 50 mg/l, 24 H): 4 arbitrary units; Color (Listeria innocua 077; Aluminum sulfate 50 mg/l, 48 H): red; Intensity (Listeria innocua 077; Aluminum sulfate 50 mg/l, 48 H): 4 arbitrary units; Color (Listeria innocua 077; Control, no metal salt, 24 H): purple; Intensity (Listeria innocua 077; Control, no metal salt, 24 H): 2.3 arbitrary units; Color (Listeria innocua 077; Control, no metal salt, 48 H): purple; Intensity (Listeria innocua 077; Control, no metal salt, 48 H): 2.3 arbitrary units; Color (Listeria innocua 077; Iron citrate 50 mg/l, 24 H): purple; Intensity (Listeria innocua 077; Iron citrate 50 mg/l, 24 H): 4 arbitrary units; Color (Listeria innocua 077; Iron citrate 50 mg/l, 48 H): purple; Intensity (Listeria innocua 077; Iron citrate 50 mg/l, 48 H): 4 arbitrary units; Color (Listeria innocua 077; [4]): purple; Intensity (Listeria innocua 077; [4]): 2.3 arbitrary units; Color (Listeria innocua 077; [5]): purple; Intensity (Listeria innocua 077; [5]): 2.3 arbitrary units; Color (Listeria innocua 077; Tin chloride 50 mg/l, 24 H): orange; Intensity (Listeria innocua 077; Tin chloride 50 mg/l, 24 H): 3 arbitrary units; Color (Listeria innocua 077; Tin chloride 50 mg/l, 48 H): orange; Intensity (Listeria innocua 077; Tin chloride 50 mg/l, 48 H): 4 arbitrary units; Color (Listeria ivanovii 018; Aluminum sulfate 50 mg/l, 24 H): red; Intensity (Listeria ivanovii 018; Aluminum sulfate 50 mg/l, 24 H): 4 arbitrary units; Color (Listeria ivanovii 018; Aluminum sulfate 50 mg/l, 48 H): red; Intensity (Listeria ivanovii 018; Aluminum sulfate 50 mg/l, 48 H): 4 arbitrary units; Color (Listeria ivanovii 018; Control, no metal salt, 24 H): purple; Intensity (Listeria ivanovii 018; Control, no metal salt, 24 H): 2.3 arbitrary units; Color (Listeria ivanovii 018; Control, no metal salt, 48 H): purple; Intensity (Listeria ivanovii 018; Control, no metal salt, 48 H): 2.3 arbitrary units; Color (Listeria ivanovii 018; Iron citrate 50 mg/l, 24 H): purple; Intensity (Listeria ivanovii 018; Iron citrate 50 mg/l, 24 H): 4 arbitrary units; Color (Listeria ivanovii 018; Iron citrate 50 mg/l, 48 H): purple; Intensity (Listeria ivanovii 018; Iron citrate 50 mg/l, 48 H): 4 arbitrary units; Color (Listeria ivanovii 018; [4]): purple; Intensity (Listeria ivanovii 018; [4]): 2.7 arbitrary units; Color (Listeria ivanovii 018; [5]): purple; Intensity (Listeria ivanovii 018; [5]): 2.7 arbitrary units; Color (Listeria ivanovii 018; Tin chloride 50 mg/l, 24 H): orange; Intensity (Listeria ivanovii 018; Tin chloride 50 mg/l, 24 H): 3 arbitrary units; Color (Listeria ivanovii 018; Tin chloride 50 mg/l, 48 H): orange; Intensity (Listeria ivanovii 018; Tin chloride 50 mg/l, 48 H): 4 arbitrary units; Color ([1]; Aluminum sulfate 50 mg/l, 24 H): red; Intensity ([1]; Aluminum sulfate 50 mg/l, 24 H): 4 arbitrary units; Color ([1]; Aluminum sulfate 50 mg/l, 48 H): red; Intensity ([1]; Aluminum sulfate 50 mg/l, 48 H): 4 arbitrary units; Color ([1]; Control, no metal salt, 24 H): purple; Intensity ([1]; Control, no metal salt, 24 H): 2.3 arbitrary units; Color ([1]; Control, no metal salt, 48 H): purple; Intensity ([1]; Control, no metal salt, 48 H): 2.3 arbitrary units; Color ([1]; Iron citrate 50 mg/l, 24 H): purple; Intensity ([1]; Iron citrate 50 mg/l, 24 H): 4 arbitrary units; Color ([1]; Iron citrate 50 mg/l, 48 H): purple; Intensity ([1]; Iron citrate 50 mg/l, 48 H): 4 arbitrary units; Color [1, 4]: purple; Intensity [1, 4]: 2.3 arbitrary units; Color [1, 5]: purple; Intensity [1, 5]: 2.7 arbitrary units; Color ([1]; Tin chloride 50 mg/l, 24 H): orange; Intensity ([1]; Tin chloride 50 mg/l, 24 H): 3 arbitrary units; Color ([1]; Tin chloride 50 mg/l, 48 H): orange; Intensity ([1]; Tin chloride 50 mg/l, 48 H): 4 arbitrary units; Color ([2]; 18 H): Purple; Intensity ([2]; 18 H): 3.5 arbitrary units; Color ([2]; 24 H): Purple; Intensity ([2]; 24 H): 4 arbitrary units; Color ([2]; 48 H): Purple; Intensity ([2]; 48 H): 4 arbitrary units; Color observed (Listeria innocua 036; 4 H): Purple; Color observed (Listeria innocua 036; 24 H): Purple; Color observed [3]: Purple; Color observed (Enterococcus faecium 009; 4 H): Purple; Color observed (Enterococcus faecium 009; 24 H): Purple
